Data taken from patent US20110287059A1, “HONEY ANALYSIS” (COMVITA NEW ZEALAND LIMITED, priority 2008, published 2011).

Assay: Antioxidant activity by ABTS radical assay (Trolox Equivalent Antioxidant Capacity)
Type: biochemical
Conditions: standard
Procedure: Antioxidant activity was determined by the ABTS assay using a spectrophotometric method for antioxidant activity using the ABTS radical assay (expressed as Trolox Equivalent Antioxidant Capacity) based on the method of Miller & Rice-Evans (Miller, N.J.; Rice-Evans, C.A. 1997: Factors influencing the antioxidant activity determined by the ABTS+radical cation assay. Free Radical Research 26(3): 195-199). All samples were diluted with warm water as required to bring into the appropriate range for the assay.

COc1ccccc1C(=O)O [2-methoxybenzoic, 2-methoxybenzoic acid]
Antioxidant Activity by ABTS Assay, Average (80 mg/kg): 51.8 μmole TEAC/100 g

O=C(O)c1cc(O)c(O)c(O)c1 [gallic acid]
Antioxidant Activity by ABTS Assay, Average (700 mg/kg): 1695.4 μmole TEAC/100 g

COC(=O)c1cc(OC)c(O)c(OC)c1 [methylsyringate, methyl syringate]
Antioxidant Activity by ABTS Assay, Average (290 mg/kg): 85.1 μmole TEAC/100 g

COc1cc(C(=O)O)cc(OC)c1O [syringic acid]
Antioxidant Activity by ABTS Assay, Average (760 mg/kg): 499.6 μmole TEAC/100 g
